{"source": "patent US7294635B2", "about": "(Portola Pharmaceuticals, Inc., priority 2003, dated 2007)"}
{"test_system": "ADP-induced human platelet aggregation", "assay": "Inhibition of ADP-mediated platelet aggregation in vitro using platelet-rich plasma (PRP assay)", "assay_type": "cell-based", "details": "5 min; human platelet-rich plasma, 2 μM ADP, 96-well microtiter, OD 650 nm at 5 min; read-out: Activity in the PRP assay", "method": "This Example Provides an Assay for the Inhibition of ADP-Mediated Platelet Aggregation In Vitro Using Platelet-Rich Plasma (PRP)\nPlatelet-rich plasma (PRP) is prepared by centrifugation at 160×g for 20 minutes at room temperature. PRP is collected, and the platelet concentration is determined using a Coulter counter or hemocytometer (platelet concentration should be 2-4×10^8 platelets per mL).\nInhibition of ADP-dependent aggregation is preferably determined in 96-well flat-bottom microtiter plates using a microtiter plate shaker and plate reader similar to the procedure described by Frantantoni et al., Am. J. Clin. Pathol. […] All steps are performed at room temperature. The total reaction volume of 0.2 mL/well includes: PRP (˜6×10^7 total platelets in the presence of plasma), serial dilutions of test compounds (buffer for control wells) in 0.6% DMSO. After about 5 minutes preincubation at room temperature, ADP is added to a final concentration of 2 μM which induces submaximal aggregation. Buffer is added instead of ADP to one set of control wells (ADP-control). The OD of the samples is then determined at 650 nm using a microtiter plate reader (Softmax, Molecular Devices, Menlo Park, Calif.) resulting in the 0 minute reading. The plates are then agitated for 5 min on a microtiter plate shaker and the 5 minute reading is obtained in the plate reader. Aggregation is calculated from the decrease of OD at 650 nm at t=5 minutes compared to t=0 minutes and is expressed as % of the decrease in the ADP control samples after correcting for changes in the unaggregated control samples.", "units": {"IC50": "µM"}}
{"compound": "CNc1cc2ccn(-c3ccc(NC(=O)NS(=O)(=O)c4ccccc4)cc3)c(=O)c2cc1F", "note": "[Example 42]", "IC50": "< 10"}
{"compound": "O=CNc1cc2ccn(-c3ccc(NC(=O)NS(=O)(=O)c4ccc(Cl)s4)cc3)c(=O)c2cc1F", "note": "[Example 14, 5-chloro-N-[({4-[7-fluoro-6-(formylamino)-1-oxoisoquinolin-2(1H)-yl]phenyl}amino)carbonyl]thiophene-2-sulfonamide]", "IC50": "> 30"}
{"compound": "CNc1cc2ccn(-c3ccc(NC(=O)NS(=O)(=O)c4ccc(Cl)s4)cc3CO)c(=O)c2cc1F", "note": "[Example 63, 5-chloro-N-({[4-[7-fluoro-6-(methylamino)-1-oxoisoquinolin-2(1H)-yl]-3-(hydroxymethyl)phenyl]amino}carbonyl)thiophene-2-sulfonamide]", "IC50": "< 10"}
{"compound": "CNc1cc2ccn(-c3cnc(NC(=O)NS(=O)(=O)c4ccc(Cl)s4)c(C)c3)c(=O)c2cc1F", "note": "[Example 60, 5-chloro-N-[({5-[7-fluoro-6-(methylamino)-1-oxoisoquinolin-2(1H)-yl]-3-methylpyridin-2-yl}amino)carbonyl]thiophene-2-sulfonamide]", "IC50": "< 10"}
{"compound": "CNc1cc2ccn(-c3ccc(NC(=O)NS(=O)(=O)c4ccc(Cl)s4)cc3COC(C)=O)c(=O)c2cc1F", "note": "[Example 62, 5-[({[(5-chlorothien-2-yl)sulfonyl]amino}carbonyl)amino]-2-[7-fluoro-6-(methylamino)-1-oxoisoquinolin-2(1H)-yl]benzyl acetate]", "IC50": "10 to 30"}
{"compound": "CNc1cc2ccn(-c3ccc(NC(=O)NS(=O)(=O)c4ccc(Cl)s4)c(C(F)(F)F)c3)c(=O)c2cc1F", "note": "[Example 97, 5-chloro-N-({[4-[7-fluoro-6-(methylamino)-1-oxoisoquinolin-2(1H)-yl]-2-(trifluoromethyl)phenyl]amino}carbonyl)thiophene-2-sulfonamide]", "IC50": "< 10"}
{"compound": "C#CCNc1cc2ccn(-c3ccc(NC(=O)NS(=O)(=O)c4ccc(Cl)s4)cc3)c(=O)c2cc1F", "note": "[Example 22, 5-chloro-N-[({4-[7-fluoro-1-oxo-6-(prop-2-ynylamino)isoquinolin-2(1H)-yl]phenyl}amino)carbonyl]thiophene-2-sulfonamide]", "IC50": "< 10"}
{"compound": "CNc1cc2ccn(-c3ccc(NC(=O)NS(=O)(=O)c4ccc(Cl)s4)nc3)c(=O)c2cc1F", "note": "[Example 59, 5-chloro-N-[({5-[7-fluoro-6-(methylamino)-1-oxoisoquinolin-2(1H)-yl]pyridin-2-yl}amino)carbonyl]thiophene-2-sulfonamide]", "IC50": "< 10"}
{"compound": "CNc1cc2ccn(-c3ccc(NC(=O)NS(=O)(=O)c4ccc(Cl)s4)c(C)n3)c(=O)c2cc1F", "note": "[Example 55, 5-chloro-N-[({6-[7-fluoro-6-(methylamino)-1-oxoisoquinolin-2(1H)-yl]-2-methylpyridin-3-yl}amino)carbonyl]thiophene-2-sulfonamide]", "IC50": "< 10"}
{"compound": "CNc1cc2ccn(-c3ccc(NC(=O)NS(=O)(=O)c4ccc(Cl)s4)c(C(C)=O)c3)c(=O)c2cc1F", "note": "[Example 88, N-[({2-acetyl-4-[7-fluoro-6-(methylamino)-1-oxoisoquinolin-2(1H)-yl]phenyl}amino)carbonyl]-5-chlorothiophene-2-sulfonamide]", "IC50": "< 10"}
{"compound": "CNc1cc2ccn(-c3cc(C)c(NC(=O)NS(=O)(=O)c4ccc(Cl)s4)cn3)c(=O)c2cc1F", "note": "[Example 56, 5-chloro-N-[({6-[7-fluoro-6-(methylamino)-1-oxoisoquinolin-2(1H)-yl]-4-methylpyridin-3-yl}amino)carbonyl]thiophene-2-sulfonamide]", "IC50": "< 10"}
{"compound": "CNc1c(F)cc2c(=O)n(-c3ccc(NC(=O)NS(=O)(=O)c4ccc(Cl)s4)cc3)ccc2c1Br", "note": "[Example 109, N-[({4-[5-bromo-7-fluoro-6-(methylamino)-1-oxoisoquinolin-2(1H)-yl]phenyl}amino)carbonyl]-5-chlorothiophene-2-sulfonamide]", "IC50": "> 30"}
{"compound": "CNc1cc2ccn(-c3ccc(NC(=O)NS(=O)(=O)c4ccc(Cl)s4)c(OC(F)(F)F)c3)c(=O)c2cc1F", "note": "[Example 87, 5-chloro-N-({[4-[7-fluoro-6-(methylamino)-1-oxoisoquinolin-2(1H)-yl]-2-(trifluoromethoxy)phenyl]amino}carbonyl)thiophene-2-sulfonamide]", "IC50": "< 10"}
{"compound": "CNc1cc2ccn(-c3ccc(NC(=O)NS(=O)(=O)c4ccc(OC)s4)cc3)c(=O)c2cc1F", "note": "[Example 34]", "IC50": "< 10"}
{"compound": "CNc1cc2ccn(-c3ccc(NC(=O)NS(=O)(=O)c4sccc4Cl)cc3)c(=O)c2cc1F", "note": "[Example 40]", "IC50": "> 30"}
{"compound": "CCCc1ccc(S(=O)(=O)NC(=O)Nc2ccc(-n3ccc4cc(NC)c(F)cc4c3=O)cc2)s1", "note": "[Example 31]", "IC50": "10 to 30"}
{"compound": "CNc1cc2ccn(-c3ccc(NC(=O)NS(=O)(=O)c4ccc(Br)s4)cc3)c(=O)c2cc1F", "note": "[Example 28, 5-bromo-N-[({4-[7-fluoro-6-(methylamino)-1-oxoisoquinolin-2(1H)-yl]phenyl}amino)carbonyl]thiophene-2-sulfonamide]", "IC50": "< 10"}
{"compound": "CCc1cc(NC(=O)NS(=O)(=O)c2ccc(Cl)s2)ccc1-n1ccc2cc(NC)c(F)cc2c1=O", "note": "[Example 73, 5-chloro-N-[({3-ethyl-4-[7-fluoro-6-(methylamino)-1-oxoisoquinolin-2(1H)-yl]phenyl}amino)carbonyl]thiophene-2-sulfonamide]", "IC50": "10 to 30"}
{"compound": "CNc1cc2ccn(-c3ccc(NC(=O)NS(=O)(=O)c4ccc(Cl)s4)cc3C(C)O)c(=O)c2cc1F", "note": "(stereo not shown) [Example 74, 5-chloro-N-({[4-[7-fluoro-6-(methylamino)-1-oxoisoquinolin-2(1H)-yl]-3-(1-hydroxyethyl)phenyl]amino}carbonyl)thiophene-2-sulfonamide]", "IC50": "> 30"}
{"compound": "CNc1cc2ccn(-c3ccc(NC(=O)NS(=O)(=O)c4ccc(Cl)s4)c(OC)c3)c(=O)c2cc1F", "note": "[Example 75, 5-chloro-N-[({4-[7-fluoro-6-(methylamino)-1-oxoisoquinolin-2(1H)-yl]-2-methoxyphenyl}amino)carbonyl]thiophene-2-sulfonamide]", "IC50": "< 10"}
{"compound": "CNc1cc2ccn(-c3cnc(NC(=O)NS(=O)(=O)c4ccc(Cl)s4)nc3)c(=O)c2cc1F", "note": "[Example 61, 5-chloro-N-[({5-[7-fluoro-6-(methylamino)-1-oxoisoquinolin-2(1H)-yl]pyrimidin-2-yl}amino)carbonyl]thiophene-2-sulfonamide]", "IC50": "< 10"}
{"compound": "CNc1cc2ccn(-c3ccc(NC(=O)NS(=O)(=O)c4cc(C(F)F)cs4)cc3)c(=O)c2cc1F", "note": "[Example 39]", "IC50": "10 to 30"}
